Experimental data reported in patent US8129427B2, “2-phenylethylamino derivatives as calcium and/or sodium channel modulators” (Newron Pharmaceuticals S.p.A., priority 2005, dated 2012).

Assays:
[1] = test system: amphetamine-chlordiazepoxide induced increase in locomotor activity in mice; experiment: Amphetamine and chlordiazepoxide-induced hyperlocomotion in mice; format: in vivo, mouse; settings: test compound 5 mg/kg given twice, FIG. 1
Description: In this model, mice are treated with a mixture of d-amphetamine plus an anxiolytic dose of the benzodiazepine, chlordiazepoxide (Rushton R, Steinberg H. Combined effects of chlordiazepoxide and d-amphetamine on activity of rats in an unfamiliar environment. Nature 1966; 211:1312-3; R. Arban, G. Maraia, K. Brackenborough, L. Winyard, A. Wilson, P. Gerrard, C. Large. Evaluation of the effects of lamotrigine, valproate and carbamazepine in a rodent model of mania Behavioural Brain Research, 158: 123-132). The model has been claimed to mimic some aspects of mania in bipolar disorder. Importantly, the hyperactivity induced by the mixture of d-amphetamine and chlordiazepoxide could be prevented by prior administration of the established mood stabilizer, lithium, as well as other mood stabilizers drugs (e.g. magnesium valproate and carbamazepine). […]
Amphetamine (AMP) (2.5 mg/kg) plus chlordiazepoxide hydrochloride (CDZ) (3 mg/kg/ip) were administered to male Albino Swiss mice (25-32 g) in a volume of 10 ml/kg. The locomotor activity was recorded using Opto-M3 System (Columbus Instruments) which is multi-channel activity monitor. […] The locomotor activity (ambulation and total activity count) was evaluated for 30 min. […]
Statistical analysis: the data were evaluated by an analysis of variance (ANOVA), followed, when appropriate, by individual comparison with the control using Dunnett's test. […]

N-type calcium channels = N-type calcium channels (Homo sapiens, UniProt Q00975); experiment: N-type calcium channel influx assay (fluorescence); format: cell-based; settings: differentiated IMR32 cells, nifedipine 1 μM, 100 mM KCl depolarization; read-out: IC50
Sequence of N-type calcium channels (Q00975 whole entry): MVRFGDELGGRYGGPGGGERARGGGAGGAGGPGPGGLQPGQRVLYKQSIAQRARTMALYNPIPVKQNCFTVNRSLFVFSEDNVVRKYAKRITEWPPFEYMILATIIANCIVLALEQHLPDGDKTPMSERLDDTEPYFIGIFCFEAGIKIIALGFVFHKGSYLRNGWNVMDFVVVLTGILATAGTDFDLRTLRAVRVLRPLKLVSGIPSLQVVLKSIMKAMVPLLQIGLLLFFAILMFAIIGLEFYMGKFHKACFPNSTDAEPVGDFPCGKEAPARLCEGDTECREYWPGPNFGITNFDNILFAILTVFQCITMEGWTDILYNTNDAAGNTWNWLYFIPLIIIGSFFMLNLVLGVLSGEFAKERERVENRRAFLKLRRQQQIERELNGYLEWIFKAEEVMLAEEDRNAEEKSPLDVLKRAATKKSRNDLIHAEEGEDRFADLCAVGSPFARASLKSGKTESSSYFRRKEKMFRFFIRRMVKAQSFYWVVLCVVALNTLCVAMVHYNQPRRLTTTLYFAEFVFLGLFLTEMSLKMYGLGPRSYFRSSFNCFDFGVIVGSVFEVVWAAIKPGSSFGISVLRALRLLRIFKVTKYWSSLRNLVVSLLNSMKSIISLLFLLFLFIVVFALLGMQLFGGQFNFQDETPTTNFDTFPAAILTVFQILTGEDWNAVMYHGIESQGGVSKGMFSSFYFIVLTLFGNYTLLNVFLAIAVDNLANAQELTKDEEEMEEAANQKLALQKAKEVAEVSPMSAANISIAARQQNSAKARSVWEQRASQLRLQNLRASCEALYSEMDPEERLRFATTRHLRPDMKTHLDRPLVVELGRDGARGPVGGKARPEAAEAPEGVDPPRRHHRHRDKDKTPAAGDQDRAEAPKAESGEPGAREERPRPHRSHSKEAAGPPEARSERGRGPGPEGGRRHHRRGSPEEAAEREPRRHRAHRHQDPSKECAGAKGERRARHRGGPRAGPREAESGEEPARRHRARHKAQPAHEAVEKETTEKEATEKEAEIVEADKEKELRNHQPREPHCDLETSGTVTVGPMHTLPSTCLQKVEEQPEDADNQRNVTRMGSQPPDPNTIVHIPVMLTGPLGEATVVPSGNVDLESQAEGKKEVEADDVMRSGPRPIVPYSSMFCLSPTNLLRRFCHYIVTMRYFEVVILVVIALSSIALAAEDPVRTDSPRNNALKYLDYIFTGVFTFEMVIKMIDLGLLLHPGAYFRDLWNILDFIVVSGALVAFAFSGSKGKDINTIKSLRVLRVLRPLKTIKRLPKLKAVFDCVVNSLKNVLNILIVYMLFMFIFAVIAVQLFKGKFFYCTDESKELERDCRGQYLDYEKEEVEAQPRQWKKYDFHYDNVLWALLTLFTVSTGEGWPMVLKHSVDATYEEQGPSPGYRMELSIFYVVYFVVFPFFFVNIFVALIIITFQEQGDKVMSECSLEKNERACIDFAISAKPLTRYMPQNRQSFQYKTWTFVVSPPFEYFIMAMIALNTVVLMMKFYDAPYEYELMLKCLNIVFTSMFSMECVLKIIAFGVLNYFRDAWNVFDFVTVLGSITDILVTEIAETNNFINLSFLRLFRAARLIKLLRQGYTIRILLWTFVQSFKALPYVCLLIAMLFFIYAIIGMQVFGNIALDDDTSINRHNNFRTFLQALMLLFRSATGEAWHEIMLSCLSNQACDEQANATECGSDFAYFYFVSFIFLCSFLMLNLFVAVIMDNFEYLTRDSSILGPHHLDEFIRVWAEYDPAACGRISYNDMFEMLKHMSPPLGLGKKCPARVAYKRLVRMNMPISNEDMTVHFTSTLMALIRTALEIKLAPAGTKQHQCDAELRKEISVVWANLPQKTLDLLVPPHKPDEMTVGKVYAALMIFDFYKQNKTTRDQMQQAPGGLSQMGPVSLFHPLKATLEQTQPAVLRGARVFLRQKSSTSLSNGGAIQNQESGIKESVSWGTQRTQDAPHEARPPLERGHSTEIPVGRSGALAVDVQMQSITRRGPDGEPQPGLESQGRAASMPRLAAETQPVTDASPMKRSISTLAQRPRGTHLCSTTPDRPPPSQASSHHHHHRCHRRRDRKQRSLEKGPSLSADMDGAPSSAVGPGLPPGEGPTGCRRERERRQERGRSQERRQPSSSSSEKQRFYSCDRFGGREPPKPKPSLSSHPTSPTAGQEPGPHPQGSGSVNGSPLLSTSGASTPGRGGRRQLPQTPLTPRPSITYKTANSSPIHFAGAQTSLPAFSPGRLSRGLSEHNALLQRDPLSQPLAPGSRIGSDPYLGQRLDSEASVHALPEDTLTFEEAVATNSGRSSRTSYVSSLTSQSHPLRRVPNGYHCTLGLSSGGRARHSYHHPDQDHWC
Sequence of N-type calcium channels (Q02641 whole entry partner): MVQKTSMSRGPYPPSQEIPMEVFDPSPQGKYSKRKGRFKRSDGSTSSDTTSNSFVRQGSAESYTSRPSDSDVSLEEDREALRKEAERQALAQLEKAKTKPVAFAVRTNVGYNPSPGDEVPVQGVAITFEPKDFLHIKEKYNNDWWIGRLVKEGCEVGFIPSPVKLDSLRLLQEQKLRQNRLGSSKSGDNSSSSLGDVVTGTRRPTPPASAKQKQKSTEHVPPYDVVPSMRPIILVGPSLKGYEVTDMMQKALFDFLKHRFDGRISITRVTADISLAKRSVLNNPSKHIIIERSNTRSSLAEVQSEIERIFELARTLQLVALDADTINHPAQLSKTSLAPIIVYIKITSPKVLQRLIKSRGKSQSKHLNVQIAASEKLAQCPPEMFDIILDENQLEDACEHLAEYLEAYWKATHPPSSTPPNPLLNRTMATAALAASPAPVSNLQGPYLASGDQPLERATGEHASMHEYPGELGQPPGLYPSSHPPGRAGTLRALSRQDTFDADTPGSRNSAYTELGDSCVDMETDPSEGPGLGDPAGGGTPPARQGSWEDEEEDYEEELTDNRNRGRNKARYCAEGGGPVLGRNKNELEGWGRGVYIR
Sequence of N-type calcium channels (P54289 25-956 partner limits assumed): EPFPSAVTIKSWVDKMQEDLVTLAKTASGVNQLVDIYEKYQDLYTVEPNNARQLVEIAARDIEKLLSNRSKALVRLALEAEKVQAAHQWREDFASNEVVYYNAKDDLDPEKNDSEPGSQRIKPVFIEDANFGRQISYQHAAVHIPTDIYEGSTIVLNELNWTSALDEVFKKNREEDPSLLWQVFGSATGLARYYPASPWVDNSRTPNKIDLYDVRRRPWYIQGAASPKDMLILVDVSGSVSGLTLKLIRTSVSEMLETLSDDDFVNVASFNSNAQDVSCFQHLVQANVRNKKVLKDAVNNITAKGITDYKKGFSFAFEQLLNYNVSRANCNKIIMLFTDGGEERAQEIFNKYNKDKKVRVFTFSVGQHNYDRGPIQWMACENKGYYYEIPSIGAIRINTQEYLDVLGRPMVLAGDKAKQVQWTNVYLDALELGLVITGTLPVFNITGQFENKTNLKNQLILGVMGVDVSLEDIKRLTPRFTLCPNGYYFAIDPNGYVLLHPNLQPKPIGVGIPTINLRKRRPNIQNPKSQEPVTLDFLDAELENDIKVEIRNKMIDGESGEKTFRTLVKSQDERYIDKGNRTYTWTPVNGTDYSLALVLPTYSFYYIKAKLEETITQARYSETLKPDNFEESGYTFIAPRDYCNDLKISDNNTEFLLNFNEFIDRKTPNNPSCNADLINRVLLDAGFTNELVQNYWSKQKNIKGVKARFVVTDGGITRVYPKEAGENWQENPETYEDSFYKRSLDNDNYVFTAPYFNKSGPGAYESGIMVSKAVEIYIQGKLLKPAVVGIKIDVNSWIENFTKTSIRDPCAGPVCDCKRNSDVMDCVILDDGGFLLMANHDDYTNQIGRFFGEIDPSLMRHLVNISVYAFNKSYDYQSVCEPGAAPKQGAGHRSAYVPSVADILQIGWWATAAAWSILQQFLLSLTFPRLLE
Sequence of N-type calcium channels (P54289 957-1103 partner limits assumed): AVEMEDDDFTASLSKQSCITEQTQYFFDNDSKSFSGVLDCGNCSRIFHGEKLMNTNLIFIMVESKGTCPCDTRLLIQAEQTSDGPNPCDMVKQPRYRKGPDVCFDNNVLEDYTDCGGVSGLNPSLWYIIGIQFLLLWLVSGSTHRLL

L-type calcium channels = format: cell-based, mouse; settings: AtT20/D16v-F2 cells, ω-conotoxin 1 μM, 100 mM KCl depolarization

| Compound | effect on amphetamine-chlordiazepoxide induced increase in locomotor activity [1] | IC50 (N-type calcium channels) [µM] | IC50 (L-type calcium channels) [µM] |
| --- | --- | --- | --- |
| CCCCOc1cccc(CCN(CC(=O)N(C)C)CC2CCOC2)c1.Cl (racemic) [Example 96, 2-[[2-(3-Butoxy-phenyl)-ethyl]-(tetrahydrofuran-3-ylmethyl)amino]-N,N-dimethyl-acetamide hydrochloride] | preventing the amphetamine-chlordiazepoxide induced increase in locomotor activity |  |  |
| C[C@H](NCc1ccc(OCc2ccccc2F)cc1)C(N)=O [ralfinamide, (S)-(+)-2-[4-(2-fluoro-benzyloxy)-benzylamino]-propanamide, reference compound] |  | 23 | 26 |
